According to PubChem BioAssay AID272 (DTP/NCI, 2004):
Values joined by “and” are separate entries in the source; they are usually repeats but may differ in a detail not shown here. Equal values may be shown once. Results filed as inconclusive are left out.

System: Lewis lung carcinoma i.m., BDF1 mice, T/C %
Experiment: NCI In Vivo Anticancer Drug Screen. Data for tumor model Lewis Lung Carcinoma (intramuscular) in B6D2F1 (BDF1) mice
Details: schedule: Q01DX011 (ip)
Outline: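 Antitumour activity is assessed in transplanted-tumour mice. Endpoint is survival or tumour size, normalised to vehicle-dosed controls (T/C).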

[1] = endpoint: mean tumor weight, dose: 1.0 mg/kg/injection, vehicle: saline, higher = larger tumour
[2] = endpoint: median survival time, dose: 2.0 mg/kg/injection, vehicle: saline, higher = longer survival
[3] = endpoint: mean tumor weight (est.), dose: 25.0 mg/kg/injection, vehicle: saline with Tween-80, higher = larger tumour
[4] = endpoint: mean tumor weight (est.), dose: 50.0 mg/kg/injection, vehicle: saline with Tween-80, higher = larger tumour
[5] = endpoint: median survival time, dose: 25.0 mg/kg/injection, vehicle: saline with Tween-80, higher = longer survival
[6] = endpoint: mean tumor weight (est.), dose: 1.0 mg/kg/injection, vehicle: saline with Tween-80, higher = larger tumour

With `Nc1nc(=S)c2ncn(C3CC(O)C(CO)O3)c2[nH]1` (configuration not stated) as the molecule, how does the T/C (endpoint: mean tumor weight, dose: 3.12 mg/kg/injection, vehicle: other, higher = larger tumour) read?
The T/C was 120 % of control.

And the T/C (endpoint: mean tumor weight, dose: 6.25 mg/kg/injection, vehicle: other, higher = larger tumour)?
Its T/C is 112 % of control.

And the T/C (endpoint: mean tumor weight, dose: 12.5 mg/kg/injection, vehicle: other, higher = larger tumour)?
Its T/C is 120 % of control.

And the T/C (endpoint: mean tumor weight, dose: 25.0 mg/kg/injection, vehicle: other, higher = larger tumour)?
The T/C was 69 % of control.

What about the T/C (endpoint: median survival time, dose: 1.56 mg/kg/injection, vehicle: other, higher = longer survival) of the same molecule?
Its T/C is 112 % of control.

And the T/C (endpoint: median survival time, dose: 3.12 mg/kg/injection, vehicle: other, higher = longer survival)?
The T/C was 95 % of control.

What about the T/C (endpoint: median survival time, dose: 6.25 mg/kg/injection, vehicle: other, higher = longer survival) of the same molecule?
The T/C was 102 % of control.

What about the T/C (endpoint: median survival time, dose: 12.5 mg/kg/injection, vehicle: other, higher = longer survival) of the same molecule?
The T/C was 112 % of control.

What about the T/C (endpoint: median survival time, dose: 25.0 mg/kg/injection, vehicle: other, higher = longer survival) of the same molecule?
Its T/C is 112 % of control.

Which T/C (endpoint: mean tumor weight (est.), dose: 7.5 mg/kg/injection, vehicle: saline, higher = larger tumour) does the source give for `CCCCCCCCCCCCCCCC[N+](C)(C)c1nc(Cl)nc(Cl)n1` here?
Its T/C is 92 % of control.

And the T/C (endpoint: mean tumor weight (est.), dose: 15.0 mg/kg/injection, vehicle: saline, higher = larger tumour)?
Its T/C is 65 % of control.

And the T/C (endpoint: median survival time, dose: 7.5 mg/kg/injection, vehicle: saline, higher = longer survival)?
The T/C was 106 % of control.

And the T/C (endpoint: median survival time, dose: 15.0 mg/kg/injection, vehicle: saline, higher = longer survival)?
The T/C was 112 % of control.

What does the source list for `CCCCCCCCCCCCCCCCCC[N+](C)(C)C` (tested in a mixture with another compound)?
T/C [1]: 59 % of control; T/C (endpoint: mean tumor weight, dose: 2.0 mg/kg/injection, vehicle: saline, higher = larger tumour): 64 % of control; T/C [2]: 88 % of control

With `CCN1/C(=C/C=C/c2oc3ccccc3[n+]2CC)Oc2ccccc21` as the molecule, how does the T/C (endpoint: mean tumor weight (est.), dose: 3.7 micrograms/kg/injection, vehicle: saline, higher = larger tumour) read?
Its T/C is 87 % of control.

And the T/C (endpoint: mean tumor weight (est.), dose: 75.0 micrograms/kg/injection, vehicle: saline, higher = larger tumour)?
Its T/C is 99 % of control.

And the T/C (endpoint: mean tumor weight (est.), dose: 150.0 micrograms/kg/injection, vehicle: saline, higher = larger tumour)?
Its T/C is 103 % of control.

What about the T/C (endpoint: mean tumor weight (est.), dose: 300.0 micrograms/kg/injection, vehicle: saline, higher = larger tumour) of the same molecule?
The T/C was 86 % of control.

What about the T/C (endpoint: median survival time, dose: 37.5 micrograms/kg/injection, vehicle: saline, higher = longer survival) of the same molecule?
The T/C was 93 % of control.

What about the T/C (endpoint: median survival time, dose: 300.0 micrograms/kg/injection, vehicle: saline, higher = longer survival) of the same molecule?
The T/C was 87 % of control.

What does the source list for `Oc1ccc(I)c2cccnc12`?
T/C (endpoint: mean tumor weight (est.), dose: 100.0 mg/kg/injection, vehicle: saline, higher = larger tumour): 109 % of control; T/C (endpoint: median survival time, dose: 100.0 mg/kg/injection, vehicle: saline, higher = longer survival): 95 % of control

Which results are given for `COc1cc2c3c(c4ccc(OC)c(OC)c4c2cc1OC)CN1CCC[C@@H]1C3`?
T/C (endpoint: mean tumor weight, dose: 1.0 mg/kg/injection, vehicle: Klucel (hydroxypropylcellulose) (HPC), higher = larger tumour): 88 % of control and 93 % of control; T/C (endpoint: mean tumor weight, dose: 2.0 mg/kg/injection, vehicle: Klucel (hydroxypropylcellulose) (HPC), higher = larger tumour): 69 % of control and 77 % of control; T/C (endpoint: mean tumor weight, dose: 4.0 mg/kg/injection, vehicle: Klucel (hydroxypropylcellulose) (HPC), higher = larger tumour): 85 % of control and 89 % of control; T/C (endpoint: mean tumor weight, dose: 8.0 mg/kg/injection, vehicle: Klucel (hydroxypropylcellulose) (HPC), higher = larger tumour): 64 % of control and 73 % of control; T/C (endpoint: mean tumor weight, dose: 16.0 mg/kg/injection, vehicle: Klucel (hydroxypropylcellulose) (HPC), higher = larger tumour): 41 % of control; T/C (endpoint: median survival time, dose: 1.0 mg/kg/injection, vehicle: Klucel (hydroxypropylcellulose) (HPC), higher = longer survival): 102 % of control; T/C (endpoint: median survival time, dose: 2.0 mg/kg/injection, vehicle: Klucel (hydroxypropylcellulose) (HPC), higher = longer survival): 86 % of control; T/C (endpoint: median survival time, dose: 4.0 mg/kg/injection, vehicle: Klucel (hydroxypropylcellulose) (HPC), higher = longer survival): 114 % of control; T/C (endpoint: median survival time, dose: 8.0 mg/kg/injection, vehicle: Klucel (hydroxypropylcellulose) (HPC), higher = longer survival): 100 % of control

For `CC(=O)Nc1cc(F)c([N+](=O)[O-])cc1[N+](=O)[O-]`, which T/C (endpoint: median survival time, dose: 1.25 mg/kg/injection, vehicle: saline with Tween-80, higher = longer survival) is on record?
The T/C was 108 % of control.

And the T/C (endpoint: median survival time, dose: 2.5 mg/kg/injection, vehicle: saline with Tween-80, higher = longer survival)?
The T/C was 104 % of control.

What about the T/C (endpoint: median survival time, dose: 5.0 mg/kg/injection, vehicle: saline with Tween-80, higher = longer survival) of the same molecule?
Its T/C is 95 % of control.

What about the T/C (endpoint: median survival time, dose: 10.0 mg/kg/injection, vehicle: saline with Tween-80, higher = longer survival) of the same molecule?
The T/C was 113 % of control.

With `C[C@]12CC[C@@H]3c4ccc(O)cc4CC[C@H]3[C@@H]1C[C@@H](O)[C@@H]2O` as the molecule, how does the T/C (endpoint: mean tumor weight, dose: 3.13 mg/kg/injection, vehicle: saline with Tween-80, higher = larger tumour) read?
Its T/C is 62 % of control.

What about the T/C (endpoint: median survival time, dose: 0.78 mg/kg/injection, vehicle: saline with Tween-80, higher = longer survival) of the same molecule?
The T/C was 108 % of control.

And the T/C (endpoint: median survival time, dose: 1.56 mg/kg/injection, vehicle: saline with Tween-80, higher = longer survival)?
Its T/C is 98 % of control.

And the T/C (endpoint: median survival time, dose: 3.12 mg/kg/injection, vehicle: saline with Tween-80, higher = longer survival)?
Its T/C is 112 % of control.

And the T/C (endpoint: median survival time, dose: 6.25 mg/kg/injection, vehicle: saline with Tween-80, higher = longer survival)?
Its T/C is 110 % of control.

Which results are given for `CCC/C(C)=N/Nc1ccccn1`?
T/C (endpoint: mean tumor weight (est.), dose: 12.5 mg/kg/injection, vehicle: saline with Tween-80, higher = larger tumour): 85 % of control; T/C [3]: 84 % of control; T/C [4]: 81 % of control; T/C (endpoint: median survival time, dose: 12.5 mg/kg/injection, vehicle: saline with Tween-80, higher = longer survival): 94 % of control; T/C [5]: 88 % of control

`O=C(CCCl)N1CCN(C(=O)CCCl)c2ccccc21` was tested. Which T/C (endpoint: mean tumor weight (est.), dose: 150.0 mg/kg/injection, vehicle: saline with Tween-80, higher = larger tumour) did it give?
The T/C was 83 % of control.

And the T/C (endpoint: mean tumor weight (est.), dose: 300.0 mg/kg/injection, vehicle: saline with Tween-80, higher = larger tumour)?
The T/C was 82 % of control.

And the T/C (endpoint: median survival time, dose: 150.0 mg/kg/injection, vehicle: saline with Tween-80, higher = longer survival)?
Its T/C is 108 % of control.

What about the T/C (endpoint: median survival time, dose: 300.0 mg/kg/injection, vehicle: saline with Tween-80, higher = longer survival) of the same molecule?
The T/C was 93 % of control.

With `CC[C@](O)(C(=O)O)c1cc2n(c(=O)c1CO)Cc1cc3ccccc3nc1-2` as the molecule, how does the T/C (endpoint: mean tumor weight, dose: 0.06 mg/kg/injection, vehicle: saline, higher = larger tumour) read?
The T/C was 95 % of control.

And the T/C (endpoint: mean tumor weight, dose: 0.12 mg/kg/injection, vehicle: saline, higher = larger tumour)?
Its T/C is 96 % of control.

What about the T/C (endpoint: mean tumor weight, dose: 0.25 mg/kg/injection, vehicle: saline, higher = larger tumour) of the same molecule?
The T/C was 101 % of control.

What about the T/C (endpoint: mean tumor weight, dose: 0.5 mg/kg/injection, vehicle: saline, higher = larger tumour) of the same molecule?
Its T/C is 91 % of control.

And the T/C [1]?
The T/C was 106 % of control.

And the T/C (endpoint: median survival time, dose: 0.06 mg/kg/injection, vehicle: saline, higher = longer survival)?
The T/C was 105 % of control.

What about the T/C (endpoint: median survival time, dose: 0.12 mg/kg/injection, vehicle: saline, higher = longer survival) of the same molecule?
Its T/C is 116 % of control.

What about the T/C (endpoint: median survival time, dose: 0.5 mg/kg/injection, vehicle: saline, higher = longer survival) of the same molecule?
The T/C was 118 % of control.

What about the T/C (endpoint: median survival time, dose: 1.0 mg/kg/injection, vehicle: saline, higher = longer survival) of the same molecule?
Its T/C is 102 % of control and 113 % of control and 124 % of control.

And the T/C [2]?
Its T/C is 214 % of control.

For `CC(C)n1c2c([n+](C)c1/C=C/c1ccccc1)C(=O)c1ccccc1C2=O`, which T/C [6] is on record?
Its T/C is 43 % of control.

How did the T/C [6] turn out when `CCCCC(CCC)(CCN)CCCC` was run?
Its T/C is 90 % of control.

And the T/C (endpoint: mean tumor weight (est.), dose: 2.0 mg/kg/injection, vehicle: saline with Tween-80, higher = larger tumour)?
Its T/C is 97 % of control.

And the T/C (endpoint: mean tumor weight (est.), dose: 4.0 mg/kg/injection, vehicle: saline with Tween-80, higher = larger tumour)?
Its T/C is 102 % of control.

What about the T/C (endpoint: mean tumor weight (est.), dose: 8.0 mg/kg/injection, vehicle: saline with Tween-80, higher = larger tumour) of the same molecule?
Its T/C is 69 % of control.

What about the T/C (endpoint: median survival time, dose: 1.0 mg/kg/injection, vehicle: saline with Tween-80, higher = longer survival) of the same molecule?
The T/C was 103 % of control.

And the T/C (endpoint: median survival time, dose: 2.0 mg/kg/injection, vehicle: saline with Tween-80, higher = longer survival)?
Its T/C is 92 % of control.

And the T/C (endpoint: median survival time, dose: 4.0 mg/kg/injection, vehicle: saline with Tween-80, higher = longer survival)?
Its T/C is 94 % of control.

And the T/C (endpoint: median survival time, dose: 8.0 mg/kg/injection, vehicle: saline with Tween-80, higher = longer survival)?
The T/C was 92 % of control.

`COc1c(C)c2c(c(O)c1C/C=C(\C)CCC(=O)O)C(=O)OC2` was tested. Which T/C [3] did it give?
Its T/C is 98 % of control.

And the T/C [4]?
Its T/C is 71 % of control.

What about the T/C (endpoint: mean tumor weight (est.), dose: 100.0 mg/kg/injection, vehicle: saline with Tween-80, higher = larger tumour) of the same molecule?
Its T/C is 57 % of control.

What about the T/C (endpoint: mean tumor weight (est.), dose: 200.0 mg/kg/injection, vehicle: saline with Tween-80, higher = larger tumour) of the same molecule?
Its T/C is 27 % of control.

What about the T/C [5] of the same molecule?
Its T/C is 97 % of control.

What about the T/C (endpoint: median survival time, dose: 50.0 mg/kg/injection, vehicle: saline with Tween-80, higher = longer survival) of the same molecule?
Its T/C is 106 % of control.

And the T/C (endpoint: median survival time, dose: 100.0 mg/kg/injection, vehicle: saline with Tween-80, higher = longer survival)?
The T/C was 100 % of control.
